{
  "source": "paper PMC12321279",
  "about": "“Novel 4,5‐Dihydrothiazole‐Phenylpiperazine Derivatives: Synthesis, Docking Studies and Pharmacological Evaluation as Serotonergic Agents” (Chemmedchem, 2025)",
  "type_in_all_cases": "in vivo",
  "key": {"[1]": {"test_system": "mice", "experiment": "Elevated plus maze test (EPM)", "description": "The tests were performed on male white mice of the Albino Swiss strain, whose weight was between 24 and 30 g in Experimental Medicine Center, Medical University of Lublin, Poland. The animals were housed (four/five per cage). Before conducting the experimental tests, the animals were subjected to an adaptation that lasted seven days. This consisted of keeping them in a room with relatively constant conditions: a temperature of 22 ± 1 °C, a humidity of 55 ± 5% and lighting that mimicked the natural day and night rhythm (12 h/12 h). Constant access to food and water was provided. Standard feed—LSM Motycz pelleted feed—and tap water were used. Mice were randomly allocated to study groups. Each group was represented by 8–10 animals, depending on the research schedule. The experiments were performed according to the procedures set out in the regulations for animal experiments: National Institute of Health Guidelines for the Care and Use of Laboratory Animals (8th edition) and to the European Community Council Directive for the Care and Use of Laboratory Animals of 22 September 2010 (2010/63/EU). The study was approved by the Local Ethical Committee in Lublin (number of ethical approvals: 27/2023). Tested compounds: FG‐1, FG‐4, FG‐5, FG‐6, FG‐7, FG‐8, and FG‐18 were finely ground in mortars with the addition of the emulsifier Tween‐80. A suspension was obtained, which was then diluted with aqueous solution of 0.5% methylcellulose (tylose). The mixture was then administered intraperitoneally (i.p.) to the animals 60 min before the start of the experiments. Animals in the control groups received a 0.5% tylose solution. All substances were administered via the same route of administration in appropriate dose and volume of 0.1 mL per 10 g of animal body weight. Prior to the administration of the drug, the animals were weighed, during the interval between tests, they were provided with food, water, and constant living conditions. The EPM test is performed using an apparatus developed by Lister;^[ [44] ^] it consists of two open arms (30 × 5 cm) and two enclosed arms (30 × 5 × 15 cm) and a central platform (5 × 5 cm) it is placed at a height of 45 cm from the floor. The labyrinth was made of Plexiglas. The experiments were conducted in a darkened and quiet room. The central square of the maze was evenly illuminated with a dull red light. In the test, the mouse is observed for 5 min, and the number of entries into the open and closed arms and the time spent in them are recorded. The person carrying out the experiment remains constantly in the same place. Entering an individual arm is considered when the mouse has placed all four limbs outside the central square. The experiment measures: 1) the time spent by the mouse into the open arms of the maze, expressed as a percentage of the total exploration time, 2) the number of entries into the open arms of the maze, expressed as a percentage of the total number of entrances to both types of arms, and 3) the total number of entries into all arms of the maze—as a locomotor activity of the animals. If the mouse spends more time in the open arms than in the closed arms, this indicates an anxiolytic effect of the compounds tested. Exposed arms pose a risk of falling and therefore act as a mild stressor. Anxious mice are more likely to switch between open and enclosed arms and spend more time in enclosed arms than less anxious mice.^[ [11], [17], [44], [45] ^]"}, "[2]": {"test_system": "mice", "experiment": "DOI‐induced head‐twitch reaction (HTR)", "details": "30 mg kg^−1 i.p. 60 min before DOI, 20 min observation", "description": "(§1) The tests were performed on male white mice of the Albino Swiss strain, whose weight was between 24 and 30 g in Experimental Medicine Center, Medical University of Lublin, Poland. The animals were housed (four/five per cage). Before conducting the experimental tests, the animals were subjected to an adaptation that lasted seven days. This consisted of keeping them in a room with relatively constant conditions: a temperature of 22 ± 1 °C, a humidity of 55 ± 5% and lighting that mimicked the natural day and night rhythm (12 h/12 h). Constant access to food and water was provided. Standard feed—LSM Motycz pelleted feed—and tap water were used. Mice were randomly allocated to study groups. Each group was represented by 8–10 animals, depending on the research schedule. The experiments were performed according to the procedures set out in the regulations for animal experiments: National Institute of Health Guidelines for the Care and Use of Laboratory Animals (8th edition) and to the European Community Council Directive for the Care and Use of Laboratory Animals of 22 September 2010 (2010/63/EU). […]\nHead‐twitch reaction (HTR) is a very characteristic behavior of the head. […] Then, after administration of the tested compounds, DOI was immediately observed for 20 min, and the number of HTR was counted. […]"}, "[3]": {"test_system": "mice", "experiment": "Amphetamine‐induced hyperactivity test", "details": "30 mg/kg i.p. 60 min before test, amphetamine 3 mg kg^−1 s.c., 20 min observation", "description": "as §1, with “(2010/63/EU). The study was approved by the Local Ethical Committee in Lublin (number of ethical approvals: 27/2023). Tested compounds: FG‐1, FG‐4, FG‐5, FG‐6, FG‐7, FG‐8, and FG‐18 were finely ground in mortars with the addition of the emulsifier Tween‐80.” for “(2010/63/EU).”"}, "[4]": {"test_system": "mice", "experiment": "Body temperature in normothermic mice", "description": "as §1, with “schedule.” for “schedule. The experiments were performed according to the procedures set out in the regulations for animal experiments: National Institute of Health Guidelines for the Care and Use of Laboratory Animals (8th edition) and to the European Community Council Directive for the Care and Use of Laboratory Animals of 22 September 2010 (2010/63/EU).”\nBody temperature in normothermic mice was measured in the rectum of animals by thermistor thermometer till 120 min after tested compounds injection. […] The final temperature (tf) was measured 30, 60, 90, and 120 min after the injection of tested compounds. Body temperature changes (Δt) were calculated according to the formula: Δt = tf − ti."}, "[5]": {"test_system": "mice", "experiment": "Spontaneous locomotor activity", "details": "20 min observation", "description": "The tests were performed on male white mice of the Albino Swiss strain, whose weight was between 24 and 30 g in Experimental Medicine Center, Medical University of Lublin, Poland. The animals were housed (four/five per cage). Before conducting the experimental tests, the animals were subjected to an adaptation that lasted seven days. This consisted of keeping them in a room with relatively constant conditions: a temperature of 22 ± 1 °C, a humidity of 55 ± 5% and lighting that mimicked the natural day and night rhythm (12 h/12 h). Constant access to food and water was provided. Standard feed—LSM Motycz pelleted feed—and tap water were used. Mice were randomly allocated to study groups. Each group was represented by 8–10 animals, depending on the research schedule. The experiments were performed according to the procedures set out in the regulations for animal experiments: National Institute of Health Guidelines for the Care and Use of Laboratory Animals (8th edition) and to the European Community Council Directive for the Care and Use of Laboratory Animals of 22 September 2010 (2010/63/EU). The study was approved by the Local Ethical Committee in Lublin (number of ethical approvals: 27/2023). Tested compounds: FG‐1, FG‐4, FG‐5, FG‐6, FG‐7, FG‐8, and FG‐18 were finely ground in mortars with the addition of the emulsifier Tween‐80. A suspension was obtained, which was then diluted with aqueous solution of 0.5% methylcellulose (tylose). The mixture was then administered intraperitoneally (i.p.) to the animals 60 min before the start of the experiments. Animals in the control groups received a 0.5% tylose solution. All substances were administered via the same route of administration in appropriate dose and volume of 0.1 mL per 10 g of animal body weight. Prior to the administration of the drug, the animals were weighed, during the interval between tests, they were provided with food, water, and constant living conditions.\nAn Opto‐Varimex‐4 Auto‐Track animal activity meter (Columbus Instruments, USA) was used to study animal movement, which consists of eight transparent cages with lids measuring 43 × 43 × 32 cm, a set of four infrared transmitters (each transmitter has 16 laser beams) and four detectors to monitor animal movements. Testing was initiated 60 min after compound administration. For the spontaneous locomotor activity study, tylose was administered to the control group and the tested compounds. For the amphetamine‐induced or MK‐801‐induced hyperactivity tests, tylose, the tested compounds and after 30 min, amphetamine (3 mg kg^−1) or MK‐801 (0.3 mg kg^−1) were administered. While the test was being performed, animals were individually caged, initially for 5 min of adaptation, followed by 20 min of actual mobility testing."}, "[6]": {"details": "30 mg kg^−1 i.p. 60 min before test"}, "[7]": {"details": "15 mg kg^−1 i.p. 60 min before test"}, "[8]": {"details": "30 mg/kg i.p. 60 min before test"}},
  "data": [
    {"smiles": "O=C(NCCCN1CCN(c2ccc(C3=NCCS3)cc2)CC1)C1CC2C=CC1C2", "note": "(stereo not drawn) [FG‐18, Endo‐ N‐(3‐(4‐(4‐(4,5‐dihydrothiazol‐2‐yl)phenyl)piperazin‐1‐yl)propyl) bicyclo[2.2.1]hept‐5‐ene‐2‐carboxamide]", "values": [
      {"measurement": "EPM, percentage of time spent in open arms", "setting": "[1]; [6]", "value": "significant increase in time spent in open arms"},
      {"measurement": "DOI‐induced HTR (number of head twitches)", "setting": "[2]", "value": "significant decrease in HTR"}
    ]},
    {"smiles": "O=C(NCCCN1CCN(c2ccccc2C2=NCCS2)CC1)c1ccccn1", "note": "[FG‐1, N‐(3‐(4‐(2‐(4,5‐dihydrothiazol‐2‐yl) phenyl) piperazin‐1‐yl) propyl) picolinamide]", "values": [
      {"measurement": "amphetamine‐induced hyperactivity", "setting": "[3]", "value": "significant decrease in amphetamine‐induced hyperactivity"},
      {"measurement": "EPM, percentage of the open arm entries", "setting": "[1]; [6]", "value": "increase in the percentage of open arm entries"},
      {"measurement": "EPM, percentage of time spent in open arms", "setting": "[1]; [6]", "value": "significant increase in time spent in open arms"},
      {"measurement": "DOI‐induced HTR (number of head twitches)", "setting": "[2]", "value": "significant decrease in HTR"}
    ]},
    {"smiles": "O=C(NCCCN1CCN(c2cccc(C3=NCCS3)c2)CC1)c1ccncc1", "note": "[FG‐5, N‐(3‐(4‐(3‐(4,5‐dihydrothiazol‐2‐yl) phenyl) piperazin‐1‐yl) propyl) isonicotinamide]", "values": [
      {"measurement": "body temperature of normothermic mice", "setting": "[4]; 30 mg kg^−1 i.p., from 30 to 90 min", "value": "significant decrease in the body temperature"}
    ]},
    {"smiles": "O=C(NCCCN1CCN(c2ccccc2C2=NCCS2)CC1)c1ccncc1", "note": "[FG‐4, N‐(3‐(4‐(2‐(4,5‐dihydrothiazol‐2‐yl) phenyl) piperazin‐1‐yl) propyl) isonicotinamide]", "values": [
      {"measurement": "amphetamine‐induced hyperactivity", "setting": "[3]", "value": "significant decrease in amphetamine‐induced hyperactivity"}
    ]},
    {"smiles": "O=C(NCCCN1CCN(c2ccc(C3=NCCS3)cc2)CC1)c1ccncc1", "note": "[FG‐6, N‐(3‐(4‐(4‐(4,5‐dihydrothiazol‐2‐yl) phenyl) piperazin‐1‐yl) propyl) isonicotinamide]", "values": [
      {"measurement": "body temperature of normothermic mice", "setting": "[4]; 15 mg kg^−1 i.p., from 30 to 90 min and also in 120 min", "value": "significant decrease in the body temperature"},
      {"measurement": "spontaneous locomotor activity", "setting": "[5]; [7]", "value": "did not change the motility of mice"},
      {"measurement": "spontaneous locomotor activity", "setting": "[5]; [8]", "value": "significant decrease in spontaneous locomotor activity"},
      {"measurement": "EPM, percentage of the open arm entries", "setting": "[1]; 7.5 mg kg^−1 i.p. 60 min before test", "value": "increase in the percentage of open arm entries"},
      {"measurement": "EPM, percentage of the open arm entries", "setting": "[1]; [7]", "value": "increase in the percentage of open arm entries"},
      {"measurement": "EPM, percentage of time spent in open arms", "setting": "[1]; [7]", "value": "significant increase in time spent in open arms"}
    ]},
    {"smiles": "O=C1C2C3C=CC(C3)C2C(=O)N1OCCCN1CCN(c2ccccc2C2=NCCS2)CC1", "note": "(stereo not drawn) [FG‐7, 2‐(3‐(4‐(2‐(4,5‐dihydrothiazol‐2‐yl) phenyl) piperazin‐1‐yl) propoxy)‐3a,4,7,7a‐tetrahydro‐1 H‐4,7‐methanoisoindole‐1,3(2 H)‐dione]", "values": [
      {"measurement": "spontaneous locomotor activity", "setting": "[5]; [7]", "value": "did not change the motility of mice"},
      {"measurement": "spontaneous locomotor activity", "setting": "[5]; [8]", "value": "significant decrease in spontaneous locomotor activity"},
      {"measurement": "EPM, percentage of time spent in open arms", "setting": "[1]; [7]", "value": "significant increase in time spent in open arms"},
      {"measurement": "EPM, percentage of the open arm entries", "setting": "[1]; [6]", "value": "increase in the percentage of open arm entries"}
    ]}
  ]
}
